From patent US20150212068A1, “Cholyl-L-Lysyl-Fluorescein Assay” (Novassay SA, priority 2012, published 2015) come the findings set out here.

The test system of the experiment is serum/plasma proteins. Kind of experiment: Effect of ANS on CLF recovery in the labelled-antibody format. The note with it: human serum/plasma spiked with CLF, competitive immunoassay. The format is in vitro ADME. From the text:
This was successful in shifting the mean recovery to ˜100%. However, an unacceptably wide sample-to-sample variation was still observed (˜70-180%), therefore it was concluded that a blocker approach would be required, in which a chemical agent is used to displace the analyte from the binding proteins, so that it can be recovered effectively in the assay. […] ANS was therefore evaluated in more detail in this format.
The following study was executed to assess the recovery of CLF following spiking into human serum in assays, in the presence and absence of ANS.
25 μl of standard (in buffer) was added to streptavidin coated wells, followed by 100 ul of 20 ng/ml biotin-fluorescein (one formulation containing 0.2% ANS, the other without) and 100 μl of anti-fluorescein HRP (100 ng/ml). After 30 minutes incubation (RT/static) the wells were washed and 100 μl of SureBlue Reserve TMB substrate added. After a further 10 minutes incubation, 100 μl of 1M HCl was added and the colour intensity measured at 450 nm.
3 plasma samples (Lithium heparin) were spiked with CLF at […]; these concentrations (the expected values) are noted in the relevant sample IDs.

“Also recorded” adds a separate entry of the source.

In the case of `O=S(=O)(O)c1cccc2cccc(Nc3ccccc3)c12` [ANS, 8-anilino-1-naphthalene sulfonic acid], the “displacement of CLF from serum/plasma proteins by blocker” value was “effective in displacing CLF bound to serum/plasma proteins; also recorded: able to displace CLF from serum proteins”.
